Entries after “also recorded” stand apart in the source; their conditions may differ. Read-outs that look alike come from different tables or passages of the source. Residues, ends and D or L forms follow the SMILES beside them.
What was measured:
[1] = Hypotensive activity relative to CRH; conditions: in vivo
[2] = system: S91 mouse Cloudman cells (cell line M3); assay: In vitro anti-proliferation assay, Cloudman melanoma cell counts; assay type: cell-based; conditions: for EC50: Cloudman melanoma cells; for Anti-proliferative effect on Cloudman melanoma cells (in words): in vitro
Experimental: S91 mouse Cloudman cells (cell line M3) were obtained from the American Type Culture Collection. Hams F-10 medium, fetal bovine serum, and horse serum were obtained from Gibco BRL. Cloudman cells were cultured in Ham's F-10 medium supplemented with 5% horse serum, 2.5% fetal bovine serum, and 1% penicillin/streptomycin in a humidified incubator with 5% C02 at 37° C. Media were changed every second day.
Cells were plated at a concentration of ˜20,000 cells per well in Ham's F-10 medium supplemented with 5% horse serum, 2.5% fetal bovine serum and 1% penicillin/streptomycin into tissue-culture-12-well plates. Test peptides or sterile water containing 0.5% BSA (vehicle control) were added to culture medium prior to plating, and cells were allowed to adhere overnight in a humidified incubator with 5% CO2 at 37° C. Culture medium containing peptides and culture medium containing vehicle control were changed daily. For counting, cells were detached with 200 μL of 0.25% trypsin. Detachment levels were verified under a light microscope. After detachment, cell suspensions were transferred to 1.5-mL Eppendorf tubes, vigorously pipetted for uniform suspension, and cell number in 10 μL of cell suspension was counted in a hemacytometer under a light microscope.

[3] = system: W256 rat mammary carcinoma; conditions: 100 micrograms/kg subcutaneously twice a day for 3 days; cited from earlier work
[4] = system: W256 cells; conditions: cited from earlier work
[5] = read-out: EC50 values for CRH peptides versus Cloudman melanoma
[6] = Cloudman cells, relative to CRH

Molecule | EC50 [2, 5] | Anti-proliferative effect on Cloudman melanoma cells (in words) [2] | other results
CC[C@H](C)[C@H](NC(=O)[C@@H](NC(=O)[C@H](CCC(=O)O)NC(=O)[C@H](CCSC)NC(=O)[C@H](CC(C)C)NC(=O)[C@H](CCCCN)NC(=O)[C@H](CCCNC(=N)N)NC(=O)[C@H](CC(N)=O)NC(=O)[C@H](CO)NC(=O)[C@H](Cc1c[nH]cn1)NC(=O)[C@H](C)NC(=O)[C@H](CCC(N)=O)NC(=O)[C@H](CCC(N)=O)NC(=O)[C@H](C)NC(=O)[C@H](CC(C)C)NC(=O)[C@H](CCC(N)=O)NC(=O)[C@H](CCC(=O)O)NC(=O)[C@H](C)NC(=O)[C@H](CCCNC(=N)N)NC(=O)[C@H](C)NC(=O)[C@H](CCSC)NC(=O)[C@@H](CCC(=O)O)NC(=O)[C@H](CC(C)C)NC(=O)[C@@H](NC(=O)[C@H](CCC(=O)O)NC(=O)[C@H](CCCNC(=N)N)NC(=O)[C@H](CC(C)C)NC(=O)[C@H](CC(C)C)NC(=O)[C@H](Cc1c[nH]cn1)NC(=O)[C@H](Cc1ccccc1)NC(=O)[C@@H](NC(=O)[C@H](CC(C)C)NC(=O)[C@H](CC(=O)O)NC(=O)[C@H](CC(C)C)NC(=O)[C@H](CO)NC(=O)[C@@H](NC(=O)[C@@H]1CCCN1C(=O)[C@@H]1CCCN1C(=O)[C@H](CCC(=O)O)NC(=O)[C@H](CCC(=O)O)NC(=O)[C@@H](N)CO)[C@@H](C)CC)[C@@H](C)O)C(C)C)[C@@H](C)CC)C(N)=O [II, [D-Glu^20]-CRH] | 16 pM | retained; also recorded: significantly inhibit proliferation | Hypotensive activity relative to CRH [1]: diminished
CC[C@H](C)[C@H](NC(=O)[C@@H](NC(=O)[C@H](CCC(=O)O)NC(=O)[C@H](CCSC)NC(=O)[C@H](CC(C)C)NC(=O)[C@H](CCCCN)NC(=O)[C@H](CCCNC(=N)N)NC(=O)[C@H](CC(N)=O)NC(=O)[C@H](CO)NC(=O)[C@H](Cc1c[nH]cn1)NC(=O)[C@H](C)NC(=O)[C@H](CCC(N)=O)NC(=O)[C@H](CCC(N)=O)NC(=O)[C@H](C)NC(=O)[C@H](CC(C)C)NC(=O)[C@H](CCC(N)=O)NC(=O)[C@H](CCC(=O)O)NC(=O)[C@H](C)NC(=O)[C@H](CCCNC(=N)N)NC(=O)[C@H](C)NC(=O)[C@H](CCSC)NC(=O)[C@H](CCC(=O)O)NC(=O)[C@H](CC(C)C)NC(=O)[C@@H](NC(=O)[C@H](CCC(=O)O)NC(=O)[C@H](CCCNC(=N)N)NC(=O)[C@H](CC(C)C)NC(=O)[C@H](CC(C)C)NC(=O)[C@H](Cc1c[nH]cn1)NC(=O)[C@H](Cc1ccccc1)NC(=O)[C@@H](NC(=O)[C@H](CC(C)C)NC(=O)[C@H](CC(=O)O)NC(=O)[C@H](CC(C)C)NC(=O)[C@H](CO)NC(=O)[C@@H](NC(=O)[C@H]1CCCN1C(=O)[C@@H]1CCCN1C(=O)[C@H](CCC(=O)O)NC(=O)[C@H](CCC(=O)O)NC(=O)[C@@H](N)CO)[C@@H](C)CC)[C@@H](C)O)C(C)C)[C@@H](C)CC)C(N)=O [III, [D-Pro^5]-CRH] | 82 pM |  | EC50 fold greater than CRH [2, 6]: 10 fold
CC[C@H](C)[C@H](NC(=O)[C@@H](NC(=O)[C@H](CCC(=O)O)NC(=O)[C@H](CCSC)NC(=O)[C@H](CC(C)C)NC(=O)[C@H](CCCCN)NC(=O)[C@H](CCCNC(=N)N)NC(=O)[C@H](CC(N)=O)NC(=O)[C@H](CO)NC(=O)[C@H](Cc1c[nH]cn1)NC(=O)[C@H](C)NC(=O)[C@H](CCC(N)=O)NC(=O)[C@H](CCC(N)=O)NC(=O)[C@H](C)NC(=O)[C@H](CC(C)C)NC(=O)[C@H](CCC(N)=O)NC(=O)[C@H](CCC(=O)O)NC(=O)[C@H](C)NC(=O)[C@H](CCCNC(=N)N)NC(=O)[C@H](C)NC(=O)[C@H](CCSC)NC(=O)[C@H](CCC(=O)O)NC(=O)[C@H](CC(C)C)NC(=O)[C@@H](NC(=O)[C@H](CCC(=O)O)NC(=O)[C@H](CCCNC(=N)N)NC(=O)[C@H](CC(C)C)NC(=O)[C@H](CC(C)C)NC(=O)[C@H](Cc1c[nH]cn1)NC(=O)[C@H](Cc1ccccc1)NC(=O)[C@@H](NC(=O)[C@H](CC(C)C)NC(=O)[C@H](CC(=O)O)NC(=O)[C@H](CC(C)C)NC(=O)[C@H](CO)NC(=O)[C@@H](NC(=O)[C@@H]1CCCN1C(=O)[C@@H]1CCCN1C(=O)[C@H](CCC(=O)O)NC(=O)[C@H](CCC(=O)O)NC(=O)[C@@H](N)CO)[C@@H](C)CC)[C@@H](C)O)C(C)C)[C@@H](C)CC)C(N)=O [Peptide I, CRH] | 8.6 pM | Significant anti-proliferative effects | Inhibition of growth of intracerebrally-injected W256 tumor cells [3]: significant inhibition of growth; Antiproliferative effects in in vitro cultures of W256 cells [4]: exhibited antiproliferative effects; Time of maximum suppression of proliferation after treatment ([2]; Cloudman cells): about 96 hr; EC50 ([2]; 96 hr, read-out: EC50 of CRH after 96 hr): 9 pM
CC[C@H](C)[C@H](NC(=O)[C@H](CO)NC(=O)[C@H](CC(C)C)NC(=O)[C@H](CO)NC(=O)[C@@H]1CCCN1C(=O)[C@H](CC(N)=O)NC(=O)[C@@H](N)CC(=O)O)C(=O)N[C@@H](CC(=O)O)C(=O)N[C@@H](CC(C)C)C(=O)N[C@H](C(=O)N[C@@H](Cc1ccccc1)C(=O)N[C@@H](Cc1c[nH]cn1)C(=O)N[C@@H](CC(C)C)C(=O)N[C@@H](CC(C)C)C(=O)N[C@@H](CCCNC(=N)N)C(=O)N[C@H](C(=O)N[C@@H](CC(C)C)C(=O)N[C@@H](CC(C)C)C(=O)N[C@@H](CCC(=O)O)C(=O)N[C@@H](CC(C)C)C(=O)N[C@@H](C)C(=O)N[C@@H](CCCNC(=N)N)C(=O)N[C@H](C(=O)N[C@@H](CCC(N)=O)C(=O)N[C@@H](CO)C(=O)N[C@@H](CCC(N)=O)C(=O)N[C@@H](CCCNC(=N)N)C(=O)N[C@@H](CCC(=O)O)C(=O)N[C@@H](CCCNC(=N)N)C(=O)N[C@@H](C)C(=O)N[C@@H](CCC(=O)O)C(=O)N[C@@H](CCC(N)=O)C(=O)N[C@@H](CC(N)=O)C(=O)N[C@@H](CCCNC(=N)N)C(=O)N[C@H](C(=O)N[C@H](C(=O)N[C@@H](Cc1ccccc1)C(=O)N[C@@H](CC(=O)O)C(=O)N[C@@H](CO)C(=O)N[C@H](C(N)=O)C(C)C)[C@@H](C)CC)[C@@H](C)CC)[C@@H](C)O)[C@@H](C)O)[C@@H](C)O [VI, Urocortin] (H-DNPSLSIDLTFHLLRTLLELARTQSQRERAEQNRIIFDSV-NH2) | 9.5 pM | highly effective in suppressing proliferation | 
CC[C@H](C)[C@H](NC(=O)[C@@H](NC(=O)[C@H](CC(=O)O)NC(=O)[C@H](CC(C)C)NC(=O)[C@H](CC(C)C)NC(=O)[C@H](CC(C)C)NC(=O)[C@H](CCCNC(=N)N)NC(=O)[C@H](CC(N)=O)NC(=O)[C@H](CC(N)=O)NC(=O)[C@H](C)NC(=O)[C@H](C)NC(=O)[C@H](CCC(N)=O)NC(=O)[C@H](CCC(N)=O)NC(=O)[C@H](CCCCN)NC(=O)[C@H](CCC(=O)O)NC(=O)[C@H](CCCCN)NC(=O)[C@H](CCC(=O)O)NC(=O)[C@H](CCC(N)=O)NC(=O)[C@H](CCCCN)NC(=O)[C@H](CCC(=O)O)NC(=O)[C@@H](NC(=O)[C@H](CCC(=O)O)NC(=O)[C@@H](NC(=O)[C@H](CCSC)NC(=O)[C@H](CCCCN)NC(=O)[C@H](CCCNC(=N)N)NC(=O)[C@H](CC(C)C)NC(=O)[C@H](CC(C)C)NC(=O)[C@H](CCC(=O)O)NC(=O)[C@H](CC(C)C)NC(=O)[C@H](CO)NC(=O)[C@H](CC(C)C)NC(=O)[C@H](CC(=O)O)NC(=O)[C@@H](NC(=O)[C@H](CO)NC(=O)[C@@H](NC(=O)[C@@H]1CCCN1C(=O)[C@@H]1CCCN1C(=O)CNC(=O)[C@@H]1CCC(=O)N1)[C@@H](C)CC)[C@@H](C)CC)[C@@H](C)CC)[C@@H](C)CC)[C@@H](C)O)C(N)=O [VII, Sauvagine] | 7.8 pM | highly effective in suppressing proliferation | 
acetyl-cyclo (30-33)[D-Phe^12, Nle^18, D-Glu^20, Nle^21, Glu^30, D-Ala^32]-urotensin 1(4-41) [Peptide V] |  | highly effective in suppressing proliferation | EC50 fold lower than that of CRH [2, 6]: 10 fold
α-helical-CRH(9-41) |  |  | Inhibition of the anti-proliferative effect of CRH peptides by the CRH receptor antagonist ([2]; Cloudman cells): inhibited

— patent US7285534B2, “Corticotropin-releasing hormone analogs and their uses” (The Regents of the University of California, priority 2002, dated 2007)
